According to US20230125667A1, “NOVEL TDZD ANALOGS AS AGENTS THAT DELAY, PREVENT, OR REVERSE AGE-ASSOCIATED DISEASES AND AS ANTI-CANCER AND ANTILEUKEMIC AGENTS” (United States Government as represented by the Department …, priority 2020, published 2023):

Key:
C. elegans strain CL4176 = experiment: Amyloid-associated paralysis in C. elegans strain CL4176; assay type: in vivo; conditions: after induction of Aβ1-42 in muscle (FIG. 5)
wild-type nematodes = experiment: Lifespan of C. elegans; assay type: in vivo; conditions: FIG. 8
Method: It was previously shown that several interventions that improve age-associated phenotypes also modulate lifespan (Ayyadevara et al. (2017) Antioxid Redox Signal. 27(17): 1383-1396; Ayyadevara et al. (2005) Aging Cell. 4(5): 257-271). The lifespan was assessed in C. elegans, either mock-treated or exposed to TDZD analogues. PNR-962 and BSK-179 extended the lifespan of wild-type nematodes to an identical degree, increasing the mean by roughly 25-30% (P<0.001; FIG. 8).
To obtain synchronized eggs for lifespan studies, worms were maintained for 2 generations, free of contamination and starvation. Healthy, well-fed adult worms from the 2nd generation were then lysed, and eggs placed on plates with appropriate doses of TDZD analogue PNR962, or DMSO vehicle alone (for a final concentration of 0.02% v/v DMSO). At the L4 larval stage, worms were transferred daily to fresh plates for 7 days, and thereafter on alternate days until all the worms are dead. C. elegans that moved spontaneously or responded to gentle prodding were scored as alive. For the mortality computation, worms that were lost for reasons other than natural death were censored. The methods described were adopted from previously described experimental procedures (Ayyadevara, et al. (2016) PIP3-binding proteins promote age-dependent protein aggregation and limit survival in C. elegans. Oncotarget, 7(31): 48870-48886; Bharill, et al. (2013) Extreme Depletion of PIP3 Accompanies the Increased Life Span and Stress Tolerance of PI3K-null C. elegans Mutants. Frontiers in Genetics, 4).

GSK3β = target: T1, GSK3β (Homo sapiens, UniProt P49841); experiment: GSK3β activity (kinase) assay in vitro; assay type: biochemical; conditions: dose-response curves (FIG. 21)
T1 construct: purchased BPS Bioscience
Method: The GSK3β activity assay kit (BPS Bioscience) was used, with modification of the manufacturer's protocol. The assay was done in three replicates at three doses (0.01, 0.1, and 1 μM) of each inhibitor (TDZD8, PNR962) in a 96-well plate, using 1% DMSO (final solvent concentration) as the drug-free control. The kinase assay reaction was incubated for 45 minutes at 30′C and Kinase-Glo Max Assay (Promega) was then added and incubated for 15 minutes at room temperature. A negative control contained all the reagents except the test inhibitors and GSK3β enzyme and positive control contained all reagents except the test inhibitor. SpectraMax M3 (Molecular Devices, LLC) was used as a microplate reader. The luminescence negative control reading was used as 0% activity, positive control reading was used as 100% activity and kinase assay was based on the fact that all the reading in wells with test inhibitor, should lie between these values of negative control and positive controls. GSK3β inhibitions were calculated after subtracting negative control values from all the wells and graphs were generated using GraphPad Prism.
The best predicted inhibitors were synthesized, and screened in both human neuronal cells, and in C. elegans models of neurodegeneration. These compounds were also tested for their ability to inhibit GSK3β activity in vitro.

T1 sequence (P49841 whole entry): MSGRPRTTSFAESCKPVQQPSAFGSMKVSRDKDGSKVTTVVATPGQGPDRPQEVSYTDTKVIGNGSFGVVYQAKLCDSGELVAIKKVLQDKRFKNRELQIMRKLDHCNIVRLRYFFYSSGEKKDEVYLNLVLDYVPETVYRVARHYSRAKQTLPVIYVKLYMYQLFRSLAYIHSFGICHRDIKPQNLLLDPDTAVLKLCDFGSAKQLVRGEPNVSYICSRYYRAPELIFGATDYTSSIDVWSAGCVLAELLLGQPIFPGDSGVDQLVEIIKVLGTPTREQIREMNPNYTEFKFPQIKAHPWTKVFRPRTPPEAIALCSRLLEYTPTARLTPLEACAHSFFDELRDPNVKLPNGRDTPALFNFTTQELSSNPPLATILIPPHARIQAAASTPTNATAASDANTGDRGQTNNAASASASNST

SMILES: O=c1sn(CCI)c(=O)n1Cc1ccccc1 [PNR-962]
- paralysis rescued / reduced (C. elegans strain CL4176): > 75%
- lifespan (wild-type nematodes): increased
- ability to inhibit GSK3β activity in vitro (GSK3β): markedly superior to TDZD8
